In PubChem BioAssay AID651961 (The Scripps Research Institute Molecular Screening Center, 2012):
Activity calls are given as the source filed them. How the calls were made is not given here.

These molecules were tested on BLA reporter cell line, FRET fluorescence counterscreen (assay: BLA enzyme inhibitors in reporter cells – cell-based, FRET fluorescence, dose response, counter-screen for NOD2-RIPK2 interaction inhibitor project, late-stage follow-up (AID 651961)).
With O=[N+]([O-])c1cc(S(=O)(=O)N2CCCCCC2)ccc1F the IC50 was > 49.8 µM (inactive). With COc1ccc(C(C[N+](=O)[O-])n2nc(C)cc2C)cc1 (stereo unspecified) the IC50 was > 49.8 µM (inactive). For Cc1ncc([N+](=O)[O-])n1Cc1ccc(Cl)c(Cl)c1, the IC50 was > 49.8 µM (inactive). With O=[N+]([O-])c1cccc(S(=O)(=O)N2CCCCCC2)c1 the IC50 was > 49.8 µM (inactive). For Cc1nc([N+](=O)[O-])c(Br)n1Cc1ccc(Cl)c(Cl)c1, the IC50 was > 49.8 µM (inactive). For Cc1ccc(S(=O)(=O)N2CCCCCC2)cc1[N+](=O)[O-], the IC50 was > 49.8 µM (inactive). For Cc1cc(S(=O)(=O)N2CCCCCC2)ccc1F, the IC50 was > 49.8 µM (inactive). In the case of O=S(=O)(c1ccccc1)N1CCCCCC1, the IC50 is reported as > 49.8 µM (inactive). With Cc1nc([N+](=O)[O-])c(Br)n1Cc1ccccc1 the IC50 was > 49.8 µM (inactive). For O=S(=O)(c1ccc(F)cc1)N1CCCCCC1, the IC50 was > 49.8 µM (inactive). For Cc1ccc(C(C[N+](=O)[O-])n2nc(C)cc2C)cc1 (stereo unspecified), the IC50 was > 49.8 µM (inactive).
